Laboratory results published in publication PMC4141478 (Nature communications, 2014).

Target: T1, Full length EhIP6KA (Entamoeba histolytica, UniProt C4M387)
T1 sequence (C4M387 1-270): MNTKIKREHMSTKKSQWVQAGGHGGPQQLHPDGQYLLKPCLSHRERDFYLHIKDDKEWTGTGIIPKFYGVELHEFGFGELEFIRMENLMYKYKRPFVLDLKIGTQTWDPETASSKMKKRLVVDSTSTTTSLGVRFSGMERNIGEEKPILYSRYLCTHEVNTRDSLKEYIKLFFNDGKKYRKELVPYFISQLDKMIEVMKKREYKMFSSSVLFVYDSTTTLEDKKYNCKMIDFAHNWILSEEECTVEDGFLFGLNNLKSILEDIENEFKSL
Assay: NMR of reaction product
Assay type: biochemical
Settings: 3 mM ATP, 2 mM MgCl2, pH 7.0, 37 then 25 C; product 5-InsP7

## O=P(O)(O)O[C@H]1[C@H](OP(=O)(O)O)[C@@H](OP(=O)(O)O)[C@H](OP(=O)(O)O)[C@@H](OP(=O)(O)O)[C@H]1OP(=O)(O)O [InsP6]
  NMR of reaction product: EhIP6KA, like mammalian IP6Ks, converts InsP6 to 5-InsP7
